Results from patent US20250025443A1, “COMPOUNDS AND METHODS FOR TREATING CORONA VIRUSES” (CLEAR CREEK BIO, INC., priority 2021, published 2025).

The compounds below were run against SARS-CoV-2 Papain-Like Protease (PLpro) (Severe acute respiratory syndrome coronavirus 2 (2019-nCoV) (SARS-CoV-2), UniProt P0DTD1) (assay: biochemical). Settings: PLpro enzymatic fluorescence assay; class symbols; read-out: PLpro IC50.

Row | SMILES | IC50 [µM]
1 | Cc1ccc(OCC2CCN2C)cc1C(=O)NC1(c2cccc3ccc(F)cc23)CC1 (centres unmarked) [Compound 444, N-(1-(7-Fluoronaphthalen-1-yl)cyclopropyl)-2-methyl-5-((1-methylazetidin-2-yl)methoxy)benzamide] | < 0.1
2 | Cc1ccc(OC[C@@H]2CCN2C)cc1C(=O)NC1(c2cc(-c3ccc(CN(C)C)s3)cc3ncccc23)CC1 [Compound 756, (S)—N-(1-(7-(5-((Dimethylamino)methyl)thiophen-2-yl)quinolin-5-yl)cyclopropyl)-2-methyl-5-((1-methylazetidin-2-yl)methoxy)benzamide] | < 0.1
3 | CNCCOc1ccc(C)c(C(=O)NC2(c3cc(-c4ccn(C)n4)cc4ncccc34)CC2)c1 [Compound 647, 2-Methyl-N-(1-(7-(1-methyl-1H-pyrazol-3-yl)quinolin-5-yl)cyclopropyl)-5-(2-(methylamino)ethoxy)benzamide] | < 0.1
4 | Cc1ccc(OC[C@@H]2CCN2C)cc1C(=O)NC1(c2cc(N(C)CC(F)(F)F)cc3ncccc23)CC1 [Compound 781, (S)-2-Methyl-N-(1-(7-(methyl(2,2,2-trifluoroethyl)amino)quinolin-5-yl)cyclopropyl)-5-((1-methylazetidin-2-yl)methoxy)benzamide] | < 0.1
5 | Cc1ccc(OC[C@@H]2CCN2C)cc1C(=O)NC1(c2cc(NCc3ccccc3)cc3ncccc23)CC1 [Compound 747, (S)—N-(1-(7-(Benzylamino)quinolin-5-yl)cyclopropyl)-2-methyl-5-((1-methylazetidin-2-yl)methoxy)benzamide] | < 0.1
6 | COc1cc(C2(NC(=O)c3cc(OCC4Cc5ccccc5CN4C)ccc3C)CC2)c2cccnc2c1 (centres unmarked) [Compound 799, N-(1-(7-Methoxyquinolin-5-yl)cyclopropyl)-2-methyl-5-((2-methyl-1,2,3,4-tetrahydroisoquinolin-3-yl)methoxy)benzamide] | < 0.1
7 | COc1cc(C2(NC(=O)c3cc(OC[C@@H]4CCN4C)ccc3C)CC2)c2ccc(C)nc2c1 [Compound 625, (S)-N-(1-(7-Methoxy-2-methylquinolin-5-yl)cyclopropyl)-2-methyl-5-((1-methylazetidin-2-yl)methoxy)benzamide] | < 0.1
8 | Cc1cc(-c2cc(C3(NC(=O)c4cc(OC[C@@H]5CCN5)ccc4C)CC3)c3cccnc3c2)c(C)o1 [Compound 641, (S)-5-(Azetidin-2-ylmethoxy)-N-(1-(7-(2,5-dimethylfuran-3-yl)quinolin-5-yl)cyclopropyl)-2-methylbenzamide] | < 0.1
9 | Cc1ccc(OC[C@@H]2CCN2C)cc1C(=O)NC1(c2cc(OS(=O)(=O)C(F)(F)F)cc3ncccc23)CC1 [Compound 739, (S)-5-(1-(2-Methyl-5-((1-methylazetidin-2-yl)methoxy)benzamido)cyclopropyl)quinolin-7-yl trifluoromethanesulfonate] | < 0.1
10 | Cc1ccc(OCC(C)N)cc1C(=O)NC1(c2cc(-c3ccc(Cl)s3)cc3ccccc23)CC1 (centres unmarked) [Compound 502, 5-(2-Aminopropoxy)-N-(1-(3-(5-chlorothiophen-2-yl)naphthalen-1-yl)cyclopropyl)-2-methylbenzamide] | < 0.1
11 | Cc1ccc(OC[C@@H]2CCN2)cc1C(=O)NC1(c2cc(-c3ncco3)cc3ncccc23)CC1 [Compound 694, (S)-5-(Azetidin-2-ylmethoxy)-2-methyl-N-(1-(7-(oxazol-2-yl)quinolin-5-yl)cyclopropyl)benzamide] | < 0.1
12 | Cc1ccc(OC[C@@H]2CCN2C)cc1C(=O)NC1(c2cc(-c3ccn(-c4ccccc4)n3)cc3ncccc23)CC1 [Compound 659, (S)-2-Methyl-5-((1-methylazetidin-2-yl)methoxy)-N-(1-(7-(1-phenyl-1H-pyrazol-3-yl)quinolin-5-yl)cyclopropyl)benzamide] | < 0.1
13 | COC1CN(c2cc(C3(NC(=O)c4cc(OC[C@@H]5CCN5C)ccc4C)CC3)c3ccc(C)nc3c2)C1 [Compound 811, (S)—N-(1-(7-(3-Methoxyazetidin-1-yl)-2-methylquinolin-5-yl)cyclopropyl)-2-methyl-5-((1-methylazetidin-2-yl)methoxy)benzamide] | < 0.1

Same assay, conditions: SARS-CoV-2 PLpro enzymatic fluorescence assay; read-out: PLpro IC50

Row | SMILES | IC50 [µM]
14 | Cc1ccc(OCCN2CCOCC2)cc1C(=O)NC1(c2cccc3ccccc23)CC1 [Compound 209, 2-Methyl-5-(2-morpholinoethoxy)-N-(1-(naphthalen-1-yl)cyclopropyl)benzamide] | 0.1 to 1
15 | Cc1ccc(OCCN(C)C)cc1C(=O)NC1(c2cccc(Br)c2C)CC1 [Compound 336, N-(1-(3-Bromo-2-methylphenyl)cyclopropyl)-5-(2-(dimethylamino)ethoxy)-2-methylbenzamide] | 0.1 to 1
16 | Cc1ccc(CCC2CCN2)cc1C(=O)NC1(c2cccc3ccccc23)CC1 (centres unmarked) [Compound 449, 5-(2-(Azetidin-2-yl)ethyl)-2-methyl-N-(1-(naphthalen-1-yl)cyclopropyl)benzamide] | < 0.1
17 | C=Cc1cc(C2(NC(=O)c3cc(OC[C@@H]4CCCN4)ccc3C)CC2)c2cccnc2c1 [Compound 713, (S)-2-Methyl-5-(pyrrolidin-2-ylmethoxy)-N-(1-(7-vinylquinolin-5-yl)cyclopropyl)benzamide] | < 0.1
18 | Cc1ccc(OCCN(C)C)cc1C(=O)NC1(c2cccc(Oc3ccccc3)c2)CC1 [Compound 270, 5-(2-(Dimethylamino)ethoxy)-2-methyl-N-(1-(3-phenoxyphenyl)cyclopropyl)benzamide] | > 5
19 | Cc1ccc(OCCN)cc1C(=O)NC1(c2cccc3ncccc23)CC1 [Compound 374, 5-(2-Aminoethoxy)-2-methyl-N-(1-(quinolin-5-yl)cyclopropyl)benzamide] | < 0.1
20 | Cc1cc(Br)c(OCCN(C)C)cc1C(=O)NC1(c2cccc3ccccc23)CC1 [Compound 369, 4-Bromo-5-(2-(dimethylamino)ethoxy)-2-methyl-N-(1-(naphthalen-1-yl)cyclopropyl)benzamide] | < 0.1
21 | Cc1cc2cc[nH]c2cc1C(=O)NC1(c2cccc3ccccc23)CC1 [Compound 199, 5-Methyl-N-(1-(naphthalen-1-yl)cyclopropyl)-1H-indole-6-carboxamide] | 0.1 to 1
22 | Cc1cc2ccn(C3CNC3)c2cc1C(=O)NC1(c2cccc3ccccc23)CC1 [Compound 218, 1-(Azetidin-3-yl)-5-methyl-N-(1-(naphthalen-1-yl)cyclopropyl)-1H-indole-6-carboxamide] | < 0.1
23 | Cc1cc2cc(CN3CCOCC3)[nH]c2cc1C(=O)NC1(c2cccc3ccccc23)CC1 [Compound 213, 5-Methyl-2-(morpholinomethyl)-N-(1-(naphthalen-1-yl)cyclopropyl)-1H-indole-6-carboxamide] | 1 to 5
24 | COc1cc(C2(NC(=O)c3cc(OC[C@@H]4CCCN4)ccc3C)CC2)c2cccnc2c1 [Compound 462, (S)-N-(1-(7-Methoxyquinolin-5-yl)cyclopropyl)-2-methyl-5-(pyrrolidin-2-ylmethoxy)benzamide] | < 0.1
25 | Cc1cc2c(C)c[nH]c2cc1C(=O)NC1(c2cccc3ccccc23)CC1 [Compound 212, 3,5-Dimethyl-N-(1-(naphthalen-1-yl)cyclopropyl)-1H-indole-6-carboxamide] | 0.1 to 1
26 | Cc1ccc(C2CCNCC2)cc1C(=O)NC1(c2cccc3ccccc23)CC1 [Compound 407, 2-Methyl-N-(1-(naphthalen-1-yl)cyclopropyl)-5-(piperidin-4-yl)benzamide] | < 0.1
27 | Cc1ccc(OCCN(C)C)cc1C(=O)NC1(c2ccc(F)cc2)CC1 [Compound 259, 5-(2-(Dimethylamino)ethoxy)-N-(1-(4-fluorophenyl)cyclopropyl)-2-methylbenzamide] | > 5
28 | Cc1ccc(OC2CNC2)cc1C(=O)NC1(c2cccc3ccccc23)CC1 [Compound 171, 5-(Azetidin-3-yloxy)-2-methyl-N-(1-(naphthalen-1-yl)cyclopropyl)benzamide] | 0.1 to 1
29 | Cc1ccc(OCCN(C)C)cc1C(=O)NC1(c2ccccc2OCc2ccccc2)CC1 [Compound 327, N-(1-(2-(Benzyloxy)phenyl)cyclopropyl)-5-(2-(dimethylamino)ethoxy)-2-methylbenzamide] | 1 to 5
30 | Cc1ccc(OC[C@H]2C[C@H](F)CN2)cc1C(=O)NC1(c2cccc3ccccc23)CC1 (single isomer, unassigned) [Compound 442] | < 0.1
31 | Cc1ccc([N+](=O)[O-])cc1C(=O)NC(c1cccc2ccccc12)C1CCOCC1 (centres unmarked) [Compound 105, 2-Methyl-N-(naphthalen-1-yl(tetrahydro-2H-pyran-4-yl)methyl)-5-nitrobenzamide] | > 5
32 | Cc1ccc(OCCN(C)C)cc1C(=O)NC1(c2ccc(Br)cc2)CC1 [Compound 258, N-(1-(4-Bromophenyl)cyclopropyl)-5-(2-(dimethylamino)ethoxy)-2-methylbenzamide] | > 5
33 | Cc1ccc(OC2CCNCC2)cc1C(=O)N[C@H](C)c1cccc2ccccc12 [Compound 162, (R)-2-Methyl-N-(1-(naphthalen-1-yl)ethyl)-5-(piperidin-4-yloxy)benzamide] | 0.1 to 1
34 | Cc1cc2cc(CN)[nH]c2cc1C(=O)N[C@H](C)c1cccc2ccccc12 [Compound 148, (R)-2-(Aminomethyl)-5-methyl-N-(1-(naphthalen-1-yl)ethyl)-1H-indole-6-carboxamide] | 0.1 to 1
35 | COc1cc(C2(NC(=O)c3cc(OCC4CCN4C)ccc3C)COC2)c2ccccc2c1 (centres unmarked) [Compound 450, N-(3-(3-Methoxynaphthalen-1-yl)oxetan-3-yl)-2-methyl-5-((1-methylazetidin-2-yl)methoxy)benzamide] | < 0.1
36 | Cc1ccc(OCCN(C)C)cc1C(=O)NC1(c2cccc(Cl)c2Cl)CC1 [Compound 335, N-(1-(2,3-Dichlorophenyl)cyclopropyl)-5-(2-(dimethylamino)ethoxy)-2-methylbenzamide] | 0.1 to 1
37 | Cc1ccc(OCCN(C)C)cc1C(=O)NC1(c2cccc(F)c2)CC1 [Compound 252, 5-(2-(Dimethylamino)ethoxy)-N-(1-(3-fluorophenyl)cyclopropyl)-2-methylbenzamide] | > 5
38 | Cc1nc2cccc(C3(NC(=O)c4cc(OCCN(C)C)ccc4C)CC3)c2s1 [Compound 403, 5-(2-(Dimethylamino)ethoxy)-2-methyl-N-(1-(2-methylbenzo[d]thiazol-7-yl)cyclopropyl)benzamide] | 0.1 to 1
